Measurements as given in BigSolDB 2.1.

Compound: CCCCC1=NC2(CCCC2)C(=O)N1Cc1ccc(-c2ccccc2-c2nn[nH]n2)cc1
- solubility (mole fraction) (in 1,4-dioxane, 287.9 K): 0.000466
- solubility (mole fraction) (in 1,4-dioxane, 293.45 K): 0.000634
- solubility (mole fraction) (in 1,4-dioxane, 298 K): 0.000832
- solubility (mole fraction) (in 1,4-dioxane, 303.65 K): 0.00112
- solubility (mole fraction) (in 1,4-dioxane, 308.2 K): 0.00142
- solubility (mole fraction) (in 1,4-dioxane, 312.9 K): 0.00183
- solubility (mole fraction) (in 1,4-dioxane, 318.05 K): 0.00227
- solubility (mole fraction) (in 1,4-dioxane, 322.85 K): 0.00278
- solubility (mole fraction) (in THF, 278.3 K): 0.00127
- solubility (mole fraction) (in THF, 282.85 K): 0.00152
- solubility (mole fraction) (in THF, 288.1 K): 0.00184
- solubility (mole fraction) (in THF, 292.95 K): 0.00229
- solubility (mole fraction) (in THF, 297.7 K): 0.00277
- solubility (mole fraction) (in THF, 303.15 K): 0.00332
- solubility (mole fraction) (in THF, 308.05 K): 0.00396
- solubility (mole fraction) (in THF, 312.7 K): 0.00479
- solubility (mole fraction) (in THF, 318.35 K): 0.00581
- solubility (mole fraction) (in THF, 322.75 K): 0.00687
- solubility (mole fraction) (in acetone, 278.35 K): 0.000284
- solubility (mole fraction) (in acetone, 283.15 K): 0.000364
- solubility (mole fraction) (in acetone, 288.35 K): 0.000444
- solubility (mole fraction) (in acetone, 293.6 K): 0.00053
- solubility (mole fraction) (in acetone, 298.25 K): 0.000678
- solubility (mole fraction) (in acetone, 302.95 K): 0.000861
- solubility (mole fraction) (in acetone, 308.4 K): 0.00105
- solubility (mole fraction) (in acetone, 312.75 K): 0.00129
- solubility (mole fraction) (in acetone, 318.55 K): 0.00158
- solubility (mole fraction) (in acetone, 323.1 K): 0.00192
- solubility (mole fraction) (in chloroform, 277.7 K): 0.0012
- solubility (mole fraction) (in chloroform, 283.3 K): 0.00131
- solubility (mole fraction) (in chloroform, 287.7 K): 0.00146
- solubility (mole fraction) (in chloroform, 292.7 K): 0.00161
- solubility (mole fraction) (in chloroform, 297.75 K): 0.00179
- solubility (mole fraction) (in chloroform, 302.85 K): 0.00201
- solubility (mole fraction) (in chloroform, 307.8 K): 0.00225
- solubility (mole fraction) (in chloroform, 313.4 K): 0.00259
- solubility (mole fraction) (in chloroform, 317.8 K): 0.00294
- solubility (mole fraction) (in chloroform, 323 K): 0.00335
- solubility (mole fraction) (in ethanol, 278.6 K): 0.000333
- solubility (mole fraction) (in ethanol, 283.55 K): 0.000489
- solubility (mole fraction) (in ethanol, 288.5 K): 0.000627
- solubility (mole fraction) (in ethanol, 292.7 K): 0.000809
- solubility (mole fraction) (in ethanol, 297.8 K): 0.00106
- solubility (mole fraction) (in ethanol, 303.05 K): 0.00122
- solubility (mole fraction) (in ethanol, 308.5 K): 0.00159
- solubility (mole fraction) (in ethanol, 313.3 K): 0.0021
- solubility (mole fraction) (in ethanol, 318.5 K): 0.00263
- solubility (mole fraction) (in ethanol, 323.6 K): 0.00341
